Assay results published in PMC6008465 (British Journal of Cancer, 2018).

Tests used:
[1] = tested on: patients with advanced BRAF-mutated or wild-type (WT) melanoma; assay: Phase 1 Part B (expansion): safety, MTD confirmation; type: in vivo, human
Procedure: In Part B, an adaptive study design was planned to define an optimal dosing schedule. Two schedules were evaluated: Schedule I (once-weekly dosing at the MTD, 320 mg/m^2, on Days 1, 8, and 15 of a 28-day cycle) and Schedule II (twice-weekly dosing, on Days 1, 4, 8, 11, 15, and 18 of a 28-day cycle, starting at 160 mg/m^2, based on the Schedule I MTD). One dose escalation (from 160 mg/m^2 to 320 mg/m^2) was allowed in Schedule II for MTD determination. […] Toxicity was managed as before. Up to 30 patients with BRAF-mutated melanoma and up to 29 patients with BRAF-WT melanoma were to be enrolled in Schedule I. Up to 30 patients were to be enrolled into Schedule II once the MTD was confirmed. Based on the efficacy observed in Part A, Schedule II was initiated only in patients with BRAF-mutated melanoma. Patients could continue to receive E6201 as long as there was evidence of clinical benefit (extension phase).
Safety was assessed by monitoring AEs, serious AEs (SAEs), laboratory parameters, vital signs, 12-lead electrocardiograms (ECGs), Eastern Cooperative Oncology Group performance status, and symptom-directed physical and neurologic examination findings. AEs were graded by investigators based on the National Cancer Institute Common Terminology Criteria for Adverse Events, version 3.[16]

[2] = Part B pharmacokinetics by BRAF genotype; type: in vivo, human; settings: Part B dose-expansion, by dose and genotype
Procedure: In Part A, blood was collected on Cycle 1, Days 1 and 15 at specified intervals prior to, during, and postinfusion (5 min–8 h), and on Days 2, 3, 16, and 17 (24 and 48 h postinfusion). Urine was collected on Cycle 1, Day 1 preinfusion, at 0–8 h, and 8–24 h. In Part B, blood was collected on Cycle 1, Day 1, prior to, during, and at 1–24 h postinfusion. Pharmacokinetic parameters were calculated using noncompartmental analysis.

MEK1 = settings: preclinical models; cited from earlier work
[3] = Part B, BRAF-WT 320 mg/m^2 once weekly (n=7)
[4] = Part B, BRAF-mutated 160 mg/m^2 twice weekly (n=3)
[5] = Part B, BRAF-mutated 320 mg/m^2 once weekly (n=20)
[6] = Part B, BRAF-mutated 320 mg/m^2 once-weekly group

CCNc1cc(O)c2c(c1)/C=C/C[C@H](O)[C@H](O)C(=O)/C=C\[C@@H](C)[C@H](C)OC2=O [E6201, (3S,4R,5Z,8S,9S,11E)-14-(ethylamino)-8,9,16-trihydroxy-3,4-dimethyl-3,4,9,19-tetrahydro-1H-2-benzoxacyclotetradecine-1,7 (8H)-dione]
Patients who discontinued treatment due to SAEs ([1]; Part B): 4 patients
Fatigue TEAE, patients ([1]; Part B overall, 11 patients): 36.7%
Grade 3/4 abdominal pain, patients ([1]; Part B, 2 patients): 6.7%
Grade 3/4 dyspnea, patients ([1]; Part B, 2 patients): 6.7%
Treatment-emergent SAEs other than death, patients ([1]; Part B, 14 patients): 46.7%
Grade 3/4 TEAEs, patients ([1]; Part B, 15 patients): 50.0%
Patients with ≥1 TEAE assessed as treatment-related ([1]; Part B, 19 patients): 63.3%
QT prolongation reported as an AE (grade 3, possibly related, not DLT), patients ([1]; Part B, 60-min infusion, 1 patient): 3.3%
Anemia TEAE incidence, All grades [1, 3]: 3 (42.9) n (%)
Anemia TEAE incidence, G≥3 [1, 3]: 1 (14.3) n (%)
Constipation TEAE incidence, All grades [1, 3]: 2 (28.6) n (%)
Constipation TEAE incidence, G≥3 [1, 3]: 0 n (%)
Cough TEAE incidence, All grades [1, 3]: 1 (14.3) n (%)
Cough TEAE incidence, G≥3 [1, 3]: 0 n (%)
Decreased appetite TEAE incidence, All grades [1, 3]: 2 (28.6) n (%)
Decreased appetite TEAE incidence, G≥3 [1, 3]: 0 n (%)
Fatigue TEAE incidence, All grades [1, 3]: 4 (57.1) n (%)
Fatigue TEAE incidence, G≥3 [1, 3]: 0 n (%)
Muscular weakness TEAE incidence, All grades [1, 3]: 2 (28.6) n (%)
Muscular weakness TEAE incidence, G≥3 [1, 3]: 0 n (%)
Nausea TEAE incidence, All grades [1, 3]: 2 (28.6) n (%)
Nausea TEAE incidence, G≥3 [1, 3]: 0 n (%)
Pain in extremity TEAE incidence, All grades [1, 3]: 2 (28.6) n (%)
Pain in extremity TEAE incidence, G≥3 [1, 3]: 1 (14.3) n (%)
Peripheral edema TEAE incidence, All grades [1, 3]: 2 (28.6) n (%)
Peripheral edema TEAE incidence, G≥3 [1, 3]: 1 (14.3) n (%)
Pyrexia TEAE incidence, All grades [1, 3]: 1 (14.3) n (%)
Pyrexia TEAE incidence, G≥3 [1, 3]: 0 n (%)
Vomiting TEAE incidence, All grades [1, 3]: 1 (14.3) n (%)
Vomiting TEAE incidence, G≥3 [1, 3]: 0 n (%)
Deaths (multisystem organ failure, not considered related) ([1]; Part B, BRAF-mutated 160 mg/m^2 once-weekly group (so in the source)): One
Anemia TEAE incidence, All grades [1, 4]: 1 (33.3) n (%)
Anemia TEAE incidence, G≥3 [1, 4]: 0 n (%)
Constipation TEAE incidence, All grades [1, 4]: 0 n (%)
Constipation TEAE incidence, G≥3 [1, 4]: 0 n (%)
Cough TEAE incidence, All grades [1, 4]: 1 (33.3) n (%)
Cough TEAE incidence, G≥3 [1, 4]: 0 n (%)
Decreased appetite TEAE incidence, All grades [1, 4]: 0 n (%)
Decreased appetite TEAE incidence, G≥3 [1, 4]: 0 n (%)
Fatigue TEAE incidence, All grades [1, 4]: 0 n (%)
Fatigue TEAE incidence, G≥3 [1, 4]: 0 n (%)
Muscular weakness TEAE incidence, All grades [1, 4]: 1 (33.3) n (%)
Muscular weakness TEAE incidence, G≥3 [1, 4]: 0 n (%)
Nausea TEAE incidence, All grades [1, 4]: 1 (33.3) n (%)
Nausea TEAE incidence, G≥3 [1, 4]: 1 (33.3) n (%)
Pain in extremity TEAE incidence, All grades [1, 4]: 1 (33.3) n (%)
Pain in extremity TEAE incidence, G≥3 [1, 4]: 0 n (%)
Peripheral edema TEAE incidence, All grades [1, 4]: 1 (33.3) n (%)
Peripheral edema TEAE incidence, G≥3 [1, 4]: 0 n (%)
Pyrexia TEAE incidence, All grades [1, 4]: 0 n (%)
Pyrexia TEAE incidence, G≥3 [1, 4]: 0 n (%)
Vomiting TEAE incidence, All grades [1, 4]: 1 (33.3) n (%)
Vomiting TEAE incidence, G≥3 [1, 4]: 1 (33.3) n (%)
Anemia TEAE incidence, All grades [1, 5]: 1 (5.0) n (%)
Anemia TEAE incidence, G≥3 [1, 5]: 0 n (%)
Constipation TEAE incidence, All grades [1, 5]: 3 (15.0) n (%)
Constipation TEAE incidence, G≥3 [1, 5]: 0 n (%)
Cough TEAE incidence, All grades [1, 5]: 3 (15.0) n (%)
Cough TEAE incidence, G≥3 [1, 5]: 0 n (%)
Decreased appetite TEAE incidence, All grades [1, 5]: 3 (15.0) n (%)
Decreased appetite TEAE incidence, G≥3 [1, 5]: 0 n (%)
Fatigue TEAE incidence, All grades [1, 5]: 7 (35.0) n (%)
Fatigue TEAE incidence, G≥3 [1, 5]: 0 n (%)
Muscular weakness TEAE incidence, All grades [1, 5]: 2 (10.0) n (%)
Muscular weakness TEAE incidence, G≥3 [1, 5]: 0 n (%)
Nausea TEAE incidence, All grades [1, 5]: 7 (35.0) n (%)
Nausea TEAE incidence, G≥3 [1, 5]: 0 n (%)
Pain in extremity TEAE incidence, All grades [1, 5]: 2 (10.0) n (%)
Pain in extremity TEAE incidence, G≥3 [1, 5]: 0 n (%)
Peripheral edema TEAE incidence, All grades [1, 5]: 2 (10.0) n (%)
Peripheral edema TEAE incidence, G≥3 [1, 5]: 0 n (%)
Pyrexia TEAE incidence, All grades [1, 5]: 4 (20.0) n (%)
Pyrexia TEAE incidence, G≥3 [1, 5]: 0 n (%)
Vomiting TEAE incidence, All grades [1, 5]: 5 (25.0) n (%)
Vomiting TEAE incidence, G≥3 [1, 5]: 0 n (%)
Patients with grade 1 photophobia (possibly related) ([1]; Part B, BRAF-mutated 320 mg/m^2 once-weekly): one
Deaths (not considered related to E6201) [1, 6]: 2 patients
Patients with grade 4 pericardial effusion (unrelated) [1, 6]: 1 patient
Anemia TEAE incidence, All grades ([1]; Part B, Total (N=30)): 5 (16.7) n (%)
Anemia TEAE incidence, G≥3 ([1]; Part B, Total (N=30)): 1 (3.3) n (%)
Constipation TEAE incidence, All grades ([1]; Part B, Total (N=30)): 5 (16.7) n (%)
Constipation TEAE incidence, G≥3 ([1]; Part B, Total (N=30)): 0 n (%)
Cough TEAE incidence, All grades ([1]; Part B, Total (N=30)): 5 (16.7) n (%)
Cough TEAE incidence, G≥3 ([1]; Part B, Total (N=30)): 0 n (%)
Decreased appetite TEAE incidence, All grades ([1]; Part B, Total (N=30)): 5 (16.7) n (%)
Decreased appetite TEAE incidence, G≥3 ([1]; Part B, Total (N=30)): 0 n (%)
Fatigue TEAE incidence, All grades ([1]; Part B, Total (N=30)): 11 (36.7) n (%)
Fatigue TEAE incidence, G≥3 ([1]; Part B, Total (N=30)): 0 n (%)
Muscular weakness TEAE incidence, All grades ([1]; Part B, Total (N=30)): 5 (16.7) n (%)
Muscular weakness TEAE incidence, G≥3 ([1]; Part B, Total (N=30)): 0 n (%)
Nausea TEAE incidence, All grades ([1]; Part B, Total (N=30)): 10 (33.3) n (%)
Nausea TEAE incidence, G≥3 ([1]; Part B, Total (N=30)): 1 (3.3) n (%)
Pain in extremity TEAE incidence, All grades ([1]; Part B, Total (N=30)): 5 (16.7) n (%)
Pain in extremity TEAE incidence, G≥3 ([1]; Part B, Total (N=30)): 1 (3.3) n (%)
Peripheral edema TEAE incidence, All grades ([1]; Part B, Total (N=30)): 5 (16.7) n (%)
Peripheral edema TEAE incidence, G≥3 ([1]; Part B, Total (N=30)): 1 (3.3) n (%)
Pyrexia TEAE incidence, All grades ([1]; Part B, Total (N=30)): 5 (16.7) n (%)
Pyrexia TEAE incidence, G≥3 ([1]; Part B, Total (N=30)): 0 n (%)
Vomiting TEAE incidence, All grades ([1]; Part B, Total (N=30)): 7 (23.3) n (%)
Vomiting TEAE incidence, G≥3 ([1]; Part B, Total (N=30)): 1 (3.3) n (%)
QTcF prolongation to 450–500 ms, patients ([1]; Part B, four patients across dose groups): 13.3%
QTcF increase from baseline 30–60 ms, patients ([1]; Part B, seven patients): 23.3%
QTcF increase from baseline ≥60 ms, patients ([1]; Part B, two patients, BRAF-mutated 320 mg/m^2 once-weekly group): 6.7%
Maximum-tolerated dose (MTD), confirmed ([1]; Part B, 60-min infusion once-weekly for 3 weeks of a 28-day cycle): 320 mg/m^2
Effect of BRAF mutation on PK properties [2]: no effect
Time after dosing at which MEK1 inhibition occurred (MEK1): 8 h
Time postdose for which MEK1 inhibition was sustained (MEK1): 72 h
